Assay results taken from patent US20050014817A1, “Fluorothiophene derivatives, process for preparing them and pharmaceutical compositions containing them” (Pfizer Inc, priority 2003, published 2005).

Tests used:
MMP-12 = MMP-12 (Homo sapiens, UniProt P39900); assay: In vitro inhibition of MMP-12 proteolysis of fluorigenic peptide FP-1; type: biochemical; details: FP-1 substrate 10 μM, 20 minutes at room temperature
Experimental: In Vitro Evaluation of the Inhibitory Activity of the Compounds of the Invention on MMP-12:
(§1) The inhibitory activity of the compounds of formula (I) on metalloprotease-12 is evaluated by testing the capacity of the compounds of the invention to inhibit the proteolysis of a peptide that is an MMP-12 substrate.
The substrate peptide used (fluorigenic peptide-1: FP-1) in the test has the following sequence: Mca-Pro-Leu-Gly-Leu-Dap(Dnp)-Ala-Arg-NH2.
The inhibitory activity of a compound of formula (I) is expressed as the IC50 value, which represents the concentration of inhibitor for which a 50% inhibition of the metalloprotease is observed.
(§2) The reaction starts with the sequential addition of 41 μl of FP-1 substrate (final concentration of 10 μM) to a buffer solution of 50 mM of Tris-HCl and 10 mM of CaCl2, and containing 5 mM of hydroxamic acid and 5 μl of the enzyme diluted in a 0.005% Brij-35 buffer solution. The microplates are incubated for 20 minutes at room temperature.
(§3) The compounds of the invention are tested at concentrations ranging from 0.3 to 30 μM.
(§4) The measurement of the amount of proteolysis of the peptide substrate is monitored by means of a measurement of absorbance at 405 nm using a microplate spectrophotometer, at room temperature. The IC50 values are calculated from curves in which the percentage of the catalytic activity relative to the control is represented on the x-axis and the inhibitor concentration is represented on the y-axis.

MMP-13 = MMP-13 (Homo sapiens, UniProt P45452); assay: MMP-12 test adapted to MMP-13; type: biochemical
Experimental: as §1, §2, §3, §4
The test described above for the inhibition of MMP-12 is adapted and used to determine the capacity of the compounds of formula (I) to inhibit the metalloproteases MMP-1, MMP-2, MMP-3, MMP-7, MMP-9, MMP-13 and MMP-14.

Chain of MMP-12 (P39900 106-470): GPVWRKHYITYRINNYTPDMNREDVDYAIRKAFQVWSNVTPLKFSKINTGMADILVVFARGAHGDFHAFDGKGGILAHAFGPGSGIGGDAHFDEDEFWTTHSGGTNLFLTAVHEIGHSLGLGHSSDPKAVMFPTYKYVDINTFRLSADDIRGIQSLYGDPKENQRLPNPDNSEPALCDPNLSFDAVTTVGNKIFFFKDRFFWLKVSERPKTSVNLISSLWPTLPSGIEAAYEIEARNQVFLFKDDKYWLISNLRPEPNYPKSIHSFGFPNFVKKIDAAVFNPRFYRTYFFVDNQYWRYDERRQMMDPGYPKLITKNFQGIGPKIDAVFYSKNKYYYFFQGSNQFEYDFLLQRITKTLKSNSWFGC

Structure (SMILES)	IC50 (MMP-12) [µM]	IC50 (MMP-13) [µM]
O=C(NC[C@H]1CC[C@H](C(=O)O)CC1)c1cc(-c2ccc(OC(F)(F)F)cc2)c(F)s1 [Example 1, 4-({[5-Fluoro-4-(4-trifluoromethoxyphenyl)thien-2-yl]carboxamido}-methyl)cyclohexanecarboxylic Acid]	0.14	2.8
CC(=O)c1ccc(-c2ccc(-c3cc(C(=O)NC[C@H]4CC[C@H](C(=O)O)CC4)sc3F)cc2)cc1 [Example 2, trans4-({[5-Fluoro-4-(4-[4-acetylphenyl]phenyl)thien-2-yl]carboxamido}methyl)cyclohexanecarboxylic Acid]	0.007	0.038
CC(=O)c1ccc(-c2ccc(-c3cc(C(=O)N[C@H](CC(=O)O)c4ccccc4)sc3F)cc2)cc1 [Example 3, 3-(R)-Phenyl-3-({5-fluoro-4-[4-(4-acetylphenyl)phenyl]thien-2 yl}carboxamido)-propanoic Acid]	0.024	0.085
